Laboratory results reported in US7906488B2, “Sphingolipids in treatment and prevention of steatosis and of steatosis or of hepatotoxicity and its sequelae” (Nederlandse Organisatie Voor …, priority 2004, dated 2011).

Tested on: APOE*3Leiden mice
Assay: Plasma parameters, body and liver weight after 1% PS-containing Western-type diet
Assay type: in vivo
Description: Sphingolipids: The three sphingolipids that represent the most abundant natural complex sphingolipid classes and the three of the simplest natural sphingolipids, the sphingoid bases that can be formed by enzymatic breakdown of complex sphingolipids in the intestine were used. Sphingomyelin (mainly N-palmitoyl-sphingosine-1-phosphocholine) from egg was obtained from Larodan Fine Chemicals (Stockholm, Sweden). Yeast-derived (semi)synthetic ceramide III (N-stearoyl-phytosphingosine), cerebroside (N-stearoyl-phytosphingosine-1-glucose) and phytosphingosine (PS) were from Cosmoferm BV (Delft, the Netherlands). Sphinganine and sphingosine were from Avanti Polar Lipids (Albaster, Ala.). Animals and diets: Heterozygous female APOE*3Leiden transgenic mice (Van Vlijmen et al. 1994. J. Clin. Invest 93:1403-1410.) (6 months old) were fed a Western-type diet (Hope Farms, Woerden, the Netherlands) containing 15% cocoa butter, 0.25% cholesterol, 1% corn oil, 40.5% sucrose, 20% acid casein, 10% corn starch and 5.95% cellulose (all w/w) for 5 weeks. The mice were allowed free access to food and water. Body weight and food intake were monitored weekly. In the first experiment (FIG. 2), the mice were randomized after these 5 weeks into 7 groups (n=6), based on plasma cholesterol, triglycerides, and body weight. Subsequently, the mice were fed for three weeks the same diet without or with 0.1% (w/w) phytosphingosine (PS), sphingosine, sphinganine, cerebroside, ceramide III, or sphingomyelin. Then, the sphingolipid dose was increased to 0.2% (w/w) for 3 weeks and finally to 0.4% (w/w) for 3 weeks. At randomization, and at 3, 6, and 9 weeks, tail vein blood samples were obtained after a 4 h-fast. In all subsequent experiments, female APOE*3Leiden transgenic mice (6 months old) were fed the Western-type diet for 5 weeks, and randomized as described. Subsequently, they were fed the Western-type diet for 5 weeks, or this diet supplemented with 1.0% (w/w) of PS, before being subjected to experimentation.
Plasma parameters: Tail blood samples were collected in EDTA-coated cups, or in paraoxon-coated capillaries to prevent lipolysis as described in Zambon et al. 1993 (Zambon et al. 1993. J. Lipid Res. 34:1021-1028). Plasma lipid parameters were determined using commercial kits for total cholesterol (C) Chol R1 from Roche Diagnostics, Mannheim, Germany), non-esterified free fatty acids (FFA) (NEFA-C; Wako chemicals, Neuss, Germany), Total triglycerides (TG) (Triglyceride GPO-Trinder; Sigma, St. Louis, Mo.), β-hydroxybutyrate (β-HB; Sigma) and ALAT (Reflotron GPT; Roche). Serum amyloid A (SAA) was measured by ELISA (Biosource, Nivelles, Belgium) and fibrinogen by sandwich ELISA, as described in Koopman et al., 2005 (Koopman et al. 2005. Fibrinol Proteol 11:19). For lipoproteins fractionation, groupwise-pooled plasma was size-fractionated by fast protein liquid chromatography (FPLC) on a Superose 6 column (Äkta; Amersham Pharmacia Biotech, Uppsala, Sweden). Fractions were assayed for total C and TG as described. Hepatic VLDL-TG production: The rate of hepatic VLDL-TG production, de novo apoB secretion, and VLDL composition were determined in overnight-fasted mice. Mice were anaesthetized with vetranquil/fentanyl/midazolam i.p., and injected i.v. with 0.1 ml PBS containing 100 μCi Tran^35S-label™ (ICN Biomedicals, Irvine, Calif.) to measure the de novo apoB synthesis. After 30 min, the animals received a Triton WR1339 injection (Tyloxapol, Sigma; 500 mg/kg body weight in 100 μl saline) to prevent systemic lipolysis of newly-secreted hepatic VLDL-TG (Aalto-Setala et al. 1992. J. Clin. Invest 90:1889-1900.27) Blood samples were drawn at 0, 15, 30, 60, and 90 min after Triton WR1339 injection and plasma TG concentrations were determined. After 90 min, the animals were sacrificed and blood was collected by retro-orbital bleeding for isolation of VLDL. […]

[1] = 1% PS in Western-type diet, 5 weeks
[2] = 1% PS in Western-type diet, 5 weeks, 4 h-fasted

CCCCCCCCCCCCCC[C@@H](O)[C@@H](O)[C@@H](N)CO [PS, phytosphingosine]
Effects on body weight or food intake (1% (w/w) PS in Western-type diet, five weeks): No effects
Body weight, % Δ vs control [1]: n.s.
HDL cholesterol (FPLC lipoprotein profile of pooled plasma) [1]: did not change
Liver weight, % Δ vs control [1]: −22%
Plasma free fatty acids, % Δ vs control [1]: −36%
Plasma total cholesterol, % Δ vs control [1]: −57%
Plasma triglycerides, % Δ vs control [1]: −58%
Plasma β-hydroxybutyrate, % Δ vs control [1]: n.s.
Body weight [2]: 22.6 ± 1.0 g
Liver weight [2]: 1.05 ± 0.08 g
Plasma free fatty acids [2]: 1.06 ± 0.14 mmol/L
Plasma total cholesterol [2]: 6.1 ± 1.1 mmol/L
Plasma triglycerides [2]: 1.19 ± 0.39 mmol/L
Plasma β-hydroxybutyrate [2]: 0.49 ± 0.39 mmol/L
